Assay results reported in patent US9309242B2, “Substituted pyrido[2,3-b]pyrazines as FGFR kinase inhibitors” (priority 2011, dated 2016).
Structures can show the parent of a compound that is named as a salt.

Legend:
[1] = target: T1, Ba/F3-FGFR3-transfected cells (Homo sapiens, UniProt P22607); test: Ba/F3-FGFR3 (minus IL3) cellular proliferation assay, Alamar Blue; assay type: cell-based
T1 construct: BAF3-FGFR3 (MIN IL3) pIC50; other: minus IL3
Method in brief: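 FGFR3-Ba/F3, 20000 cells/well, RPMI-1640 + 10% FBS, no phenol red; cpd in DMSO; 24 h, 37° C/5% CO2. Alamar Blue 4 h, RFU ex540/em590. Counterscreen: + murine IL3 10 ng/ml.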

FGFR4 (h) = FGFR4 (h) (Homo sapiens, UniProt P22455); test: FGFR4 (enzymatic assay), TR-FRET; assay type: biochemical; conditions: FGFR 4 pIC50, enzymatic assay; average values if tested multiple times
FGFR3 (h) = FGFR3 (h) (Homo sapiens, UniProt P22607); test: FGFR3 (enzymatic assay), TR-FRET; assay type: biochemical; conditions: average values if tested multiple times, read-out: FGFR 3 pIC50 (converted)
Excerpt: Time-Resolved Fluorescence Resonance Energy Transfer (TR-FRET) signal (ex340 nm.

[2] = target: T2, Ba/F3-FGFR1-transfected cells (Homo sapiens, UniProt P11362); test: Ba/F3-FGFR1 (minus IL3) cellular proliferation assay, Alamar Blue; assay type: cell-based
T2 construct: BAF3-FGFR1 (MIN IL3) pIC50; other: minus IL3
Method in brief: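 Ba/F3-FGFR1 cells, 20000/well, RPMI-1640 + 10% FBS + 2 mM L-Gln; compound in DMSO; 24 h, 37 °C, 5% CO2; Alamar Blue 4 h; RFU ex 540/em 590.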

[3] = tested on: Ba/F3-FGFR1-transfected cells; test: Ba/F3-FGFR1 (plus IL3) cellular proliferation assay, counterscreen with 10 ng/ml murine IL3; assay type: cell-based; conditions: plus IL3 (10 ng/ml murine IL3, counterscreen); read-out: BAF3-FGFR1 (PLUS IL3) pIC50 (converted)
Method in brief: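 Ba/F3-FGFR1 cells (20000/well) in RPMI-1640 with 10% FBS exposed to compound for 24 h at 37° C., 5% CO2, then Alamar Blue (resazurin) added for 4 h; fluorescence read at ex 540/em 590 nm. Counterscreen run identically with 10 ng/ml murine IL3.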

T1 sequence (P22607 whole entry, change not shown): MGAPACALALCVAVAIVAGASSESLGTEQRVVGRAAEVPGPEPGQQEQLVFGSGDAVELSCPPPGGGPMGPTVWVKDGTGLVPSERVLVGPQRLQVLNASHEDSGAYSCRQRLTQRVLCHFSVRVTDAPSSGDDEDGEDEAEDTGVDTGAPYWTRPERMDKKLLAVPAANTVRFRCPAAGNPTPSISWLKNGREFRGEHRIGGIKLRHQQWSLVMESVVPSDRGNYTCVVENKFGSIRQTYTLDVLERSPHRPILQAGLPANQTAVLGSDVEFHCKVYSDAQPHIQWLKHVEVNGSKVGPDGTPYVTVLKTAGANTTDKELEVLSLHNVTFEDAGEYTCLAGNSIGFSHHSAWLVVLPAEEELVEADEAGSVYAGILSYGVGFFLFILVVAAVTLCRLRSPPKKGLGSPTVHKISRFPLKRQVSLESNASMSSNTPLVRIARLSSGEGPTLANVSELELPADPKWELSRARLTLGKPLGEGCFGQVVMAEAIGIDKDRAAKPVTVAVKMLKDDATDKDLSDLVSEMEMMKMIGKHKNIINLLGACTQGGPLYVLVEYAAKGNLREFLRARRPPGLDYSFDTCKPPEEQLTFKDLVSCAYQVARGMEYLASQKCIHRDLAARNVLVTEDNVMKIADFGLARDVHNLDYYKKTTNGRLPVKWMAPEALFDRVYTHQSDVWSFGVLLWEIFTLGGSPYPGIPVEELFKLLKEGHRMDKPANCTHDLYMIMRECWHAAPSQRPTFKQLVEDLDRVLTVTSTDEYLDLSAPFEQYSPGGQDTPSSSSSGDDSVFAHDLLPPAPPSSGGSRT
Sequence of FGFR3 (h) (P22607 23-806): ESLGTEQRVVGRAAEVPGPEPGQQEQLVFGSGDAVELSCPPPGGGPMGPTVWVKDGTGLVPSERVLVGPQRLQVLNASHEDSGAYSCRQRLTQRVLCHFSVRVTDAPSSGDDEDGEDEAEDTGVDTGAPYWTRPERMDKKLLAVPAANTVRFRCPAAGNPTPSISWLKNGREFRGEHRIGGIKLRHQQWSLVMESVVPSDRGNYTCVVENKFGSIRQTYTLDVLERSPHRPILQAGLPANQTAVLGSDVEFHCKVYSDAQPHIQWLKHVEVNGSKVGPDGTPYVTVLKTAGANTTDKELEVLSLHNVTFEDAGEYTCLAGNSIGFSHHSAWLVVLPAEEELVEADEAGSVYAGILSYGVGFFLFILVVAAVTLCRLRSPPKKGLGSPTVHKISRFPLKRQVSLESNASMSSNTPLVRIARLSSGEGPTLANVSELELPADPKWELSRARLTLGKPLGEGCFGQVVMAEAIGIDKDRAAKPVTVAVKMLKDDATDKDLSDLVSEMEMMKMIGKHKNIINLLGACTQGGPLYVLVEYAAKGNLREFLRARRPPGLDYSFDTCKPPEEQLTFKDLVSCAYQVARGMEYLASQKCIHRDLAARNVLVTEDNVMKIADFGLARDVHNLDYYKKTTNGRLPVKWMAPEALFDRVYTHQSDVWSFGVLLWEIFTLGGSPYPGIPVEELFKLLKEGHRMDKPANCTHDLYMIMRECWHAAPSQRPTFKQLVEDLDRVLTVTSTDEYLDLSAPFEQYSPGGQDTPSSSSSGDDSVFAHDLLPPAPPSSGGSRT
T2 sequence (P11362 whole entry, change not shown): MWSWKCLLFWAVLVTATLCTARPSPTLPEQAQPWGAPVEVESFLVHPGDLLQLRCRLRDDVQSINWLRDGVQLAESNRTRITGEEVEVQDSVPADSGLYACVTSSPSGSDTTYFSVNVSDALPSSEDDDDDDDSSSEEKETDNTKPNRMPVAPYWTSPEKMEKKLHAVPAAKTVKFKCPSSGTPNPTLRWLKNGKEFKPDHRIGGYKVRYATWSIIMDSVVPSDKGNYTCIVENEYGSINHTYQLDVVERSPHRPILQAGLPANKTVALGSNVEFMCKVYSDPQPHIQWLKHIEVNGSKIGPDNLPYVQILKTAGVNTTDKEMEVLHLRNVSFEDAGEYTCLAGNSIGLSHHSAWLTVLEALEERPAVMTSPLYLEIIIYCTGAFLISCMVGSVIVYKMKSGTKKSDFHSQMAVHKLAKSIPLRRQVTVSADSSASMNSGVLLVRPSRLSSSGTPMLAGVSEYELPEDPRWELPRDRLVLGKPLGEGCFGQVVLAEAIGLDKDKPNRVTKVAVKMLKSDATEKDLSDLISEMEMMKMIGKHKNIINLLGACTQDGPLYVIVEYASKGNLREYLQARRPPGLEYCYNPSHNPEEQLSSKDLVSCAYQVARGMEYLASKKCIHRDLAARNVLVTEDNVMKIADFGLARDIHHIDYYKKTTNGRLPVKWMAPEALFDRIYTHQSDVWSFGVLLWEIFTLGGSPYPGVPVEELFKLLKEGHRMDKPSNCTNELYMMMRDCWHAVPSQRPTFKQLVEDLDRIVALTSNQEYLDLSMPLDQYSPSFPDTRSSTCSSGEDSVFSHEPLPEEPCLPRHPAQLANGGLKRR
Sequence of FGFR4 (h) (P22455 22-802): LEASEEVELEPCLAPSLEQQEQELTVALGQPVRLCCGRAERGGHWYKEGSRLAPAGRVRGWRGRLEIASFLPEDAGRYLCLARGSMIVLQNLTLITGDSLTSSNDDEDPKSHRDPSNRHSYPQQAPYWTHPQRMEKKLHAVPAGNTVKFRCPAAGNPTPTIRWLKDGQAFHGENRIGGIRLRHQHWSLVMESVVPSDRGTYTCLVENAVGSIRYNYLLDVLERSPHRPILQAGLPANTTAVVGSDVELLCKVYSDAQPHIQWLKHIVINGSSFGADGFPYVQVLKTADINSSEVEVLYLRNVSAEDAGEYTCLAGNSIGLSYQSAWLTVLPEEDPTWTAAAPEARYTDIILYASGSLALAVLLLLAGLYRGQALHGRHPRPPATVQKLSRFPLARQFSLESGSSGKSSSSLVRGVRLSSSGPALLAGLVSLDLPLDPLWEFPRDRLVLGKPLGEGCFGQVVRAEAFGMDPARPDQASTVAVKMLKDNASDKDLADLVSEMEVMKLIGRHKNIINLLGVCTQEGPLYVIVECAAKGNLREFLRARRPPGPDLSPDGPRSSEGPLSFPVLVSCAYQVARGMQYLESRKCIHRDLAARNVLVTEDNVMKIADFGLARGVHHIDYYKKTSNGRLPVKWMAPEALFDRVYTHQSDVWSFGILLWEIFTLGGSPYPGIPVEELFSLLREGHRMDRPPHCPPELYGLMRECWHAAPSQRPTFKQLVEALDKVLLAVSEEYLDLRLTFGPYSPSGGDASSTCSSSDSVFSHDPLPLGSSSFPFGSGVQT

SMILES	BAF3-FGFR3 (MIN IL3) pIC50 [1]	IC50 (FGFR4 (h)) [nM]	IC50 (FGFR3 (h)) [nM]	BAF3-FGFR1 (MIN IL3) pIC50 [2]	IC50 [3] [nM]
COc1cc(OC)cc(N(Cc2ncc[nH]2)c2ccc3ncc(-c4cnn(C)c4)nc3n2)c1 (racemic) [24-DL-tartrate salt]	8.21	1.12	0.741	8.47	> 10000
COc1cc(OC)c(F)c(N(CC(O)COC(C)C)c2ccc3ncc(-c4cnn(C)c4)nc3n2)c1 (single isomer, unassigned) [Compound 75]	7.75	2.24	1.95	7.76	> 10000
COc1cc(OC)c(Cl)c(N(CC2CCC(=O)N2)c2ccc3ncc(-c4cnn(C)c4)nc3n2)c1Cl (single isomer, unassigned) [Compound 88]	6.57	42.7	6.76	6.68	> 10000
COc1cc(/N=c2\ccc3ncc(-c4cnn(C)c4)nc3n2CC2COC(=O)N2)c(F)c(OC)c1 (single isomer, unassigned) [Compound 112]	~7.27	2.04	0.776	7.23	> 10000
COc1cc(OC)c(F)c(N(Cc2ncc[nH]2)c2ccc3ncc(-c4cnn(C)c4)nc3n2)c1 [Compound 23]	~8.40	1	1.07	8.85	> 10000
COc1cc(OC)cc(N(Cc2ncc[nH]2)c2ccc3ncc(-c4cnn(C)c4)nc3n2)c1 [Compound 24]	8.20	0.741	0.603	8.46	> 10000
COc1cc(OC)c(F)c(N(CCO)c2ccc3ncc(-c4cnn(C)c4)nc3n2)c1 [Compound 40]	7.84	1.82	0.646	7.80	> 10000
COc1cc(OC)c(F)c(N(Cc2c[nH]cn2)c2ccc3ncc(-c4cnn(C)c4)nc3n2)c1 [Compound 41]	8.08	0.759	0.589	7.99	> 10000
COc1cc(OC)c(Cl)c(N(Cc2ncc[nH]2)c2ccc3ncc(-c4cnn(C)c4)nc3n2)c1 [Compound 42]	~8.3	3.02	2.14	8.57	> 10000
COc1cc(OC)c(F)c(N(CC2CCC(=O)N2)c2ccc3ncc(-c4cnn(C)c4)nc3n2)c1 (stereo not drawn) [Compound 46]	7.42	3.89	1.51	7.33	> 10000
COc1cc(OC)c(F)c(N(CCCN2CCCC2=O)c2ccc3ncc(-c4cnn(C)c4)nc3n2)c1F [Compound 56]	7.87	2.29	2.75	7.53	> 10000
COc1cc(OC)c(F)c(N(CC(O)COC(C)C)c2ccc3ncc(-c4cnn(C)c4)nc3n2)c1F (stereo not drawn) [Compound 63]	7.97	6.03	6.31	7.90	> 10000
COc1cc(OC)c(F)c(/N=c2\ccc3ncc(-c4cnn(C)c4)nc3n2CC(O)COC(C)C)c1F (stereo not drawn) [Compound 64]	8.12	1	0.832	8.40	> 10000
COc1ccc(Cl)c(N(Cc2ncc[nH]2)c2ccc3ncc(-c4cnn(C)c4)nc3n2)c1Cl [Compound 65]	6.04	~355	34.7	5.97	> 10000
COc1cc(OC)c(F)c(N(CCN)c2ccc3ncc(-c4cnn(C)c4)nc3n2)c1F [Compound 67]	7.83	2.75	1.2	8.20	> 10000
COc1cc(OC)c(F)c(/N=c2\ccc3ncc(-c4cnn(C)c4)nc3n2CCN)c1F [Compound 68]	7.70	2	1.62	7.86	> 10000
CNCCN(c1ccc2ncc(-c3cnn(C)c3)nc2n1)c1c(F)ccc(OC)c1Cl [Compound 69]	6.76	38.9	6.46	7.06	> 10000

SMILES	BAF3-FGFR3 (MIN IL3) pIC50 [1]	IC50 (FGFR4 (h)) [nM]	IC50 (FGFR3 (h)) [nM]	BAF3-FGFR1 (MIN IL3) pIC50 [2]	IC50 [3] [nM]
COc1ccc(F)c(N(Cc2ncc[nH]2)c2ccc3ncc(-c4cnn(C)c4)nc3n2)c1Cl [Compound 73]	7.46	15.1	2.82	7.59	> 10000
CNCCN(c1ccc2ncc(-c3cnn(C)c3)nc2n1)c1c(Cl)c(OC)cc(OC)c1Cl [Compound 81]	6.67	70.8	8.13	7.04	> 10000
CNCCN(c1ccc2ncc(-c3cnn(C)c3)nc2n1)c1c(Cl)ccc(OC)c1Cl [Compound 83]	~5.66	933	105	5.36	> 10000
CNCCn1/c(=N/c2c(Cl)ccc(OC)c2Cl)ccc2ncc(-c3cnn(C)c3)nc21 [Compound 84]	~5.11	3550	363	5.15	> 10000
COc1cc(OC)c(F)c(N(Cc2nc[nH]n2)c2ccc3ncc(-c4cnn(C)c4)nc3n2)c1F [Compound 85]	8.14	2.24	2.14	8.28	> 10000
COc1cc(OC)c(F)c(N(Cc2nc[nH]n2)c2ccc3ncc(-c4cnn(C)c4)nc3n2)c1 [Compound 86]	~7.90	1.12	1	7.74	> 10000
COc1ccc(Cl)c(/N=c2\ccc3ncc(-c4cnn(C)c4)nc3n2CC2CCC(=O)N2)c1Cl (stereo not drawn) [Compound 92]	~5.61	562	46.8	<5	> 10000
COc1cc(OC)c(Cl)c(N(Cc2ncc[nH]2)c2ccc3ncc(-c4cnn(C)c4)nc3n2)c1Cl [Compound 98]	7.65	7.76	2.69	7.72	> 10000
COc1cc(OC)c(F)c(N(Cc2ncc[nH]2)c2ccc3ncc(-c4cnn(Cc5ncc[nH]5)c4)nc3n2)c1 [Compound 100]	7.56	1.29	1.29	8.02	> 10000
COc1cc(OC)c(F)c(N(Cc2nc3c([nH]2)CCNC3)c2ccc3ncc(-c4cnn(C)c4)nc3n2)c1 [Compound 104]	~6.01	3.47	3.09	6.70	> 10000
CNCCN(c1ccc2ncc(-c3cn[nH]c3)nc2n1)c1c(F)c(OC)cc(OC)c1F [Compound 106]	~7.12	4.68	1.48	7.86	> 10000
COc1cc(OC)c(F)c(N(Cc2nc[nH]c2C)c2ccc3ncc(-c4cnn(C)c4)nc3n2)c1 [Compound 109]	~7.65	2.69	1.45	7.85	> 10000
COc1cc(OC)c(F)c(N(Cc2ccnn2C)c2ccc3ncc(-c4cnn(C)c4)nc3n2)c1 [Compound 113]	6.72	3.31	1.38	7.19	> 10000
COc1cc(/N=c2\ccc3ncc(-c4cnn(C)c4)nc3n2Cc2ccnn2C)c(F)c(OC)c1 [Compound 114]	~7.66	0.891	0.724	7.63	> 10000
COc1cc(/N=c2\ccc3ncc(-c4cnn(C)c4)nc3n2Cc2cc[nH]n2)c(F)c(OC)c1 [Compound 115]	7.82	0.933	0.851	~8.17	> 10000
COc1cc(OC)c(F)c(N(Cc2cc[nH]n2)c2ccc3ncc(-c4cnn(C)c4)nc3n2)c1 [Compound 118]	~8.04	0.776	0.589	8.00	> 10000
